Patent US7034035B2, “Fungicidal mono-, bi-, and tri-cycloheteroalkyl amides and their compositions, methods of use and preparation” (priority 1999, dated 2006)

Experiments:
[1] = test system: Rhizoctonia solani (RHIZSO); test: microbe, parasite or virus in culture; type: cell-based
Ustilago maydis (USTIMA) = test: microbe, parasite or virus in culture; type: cell-based
Further: test concentration or dose not given here.

## CCCCCCCCCNC(=O)c1ncccc1O [Compound 201]
[1]
  RHIZSO in vitro Growth Inhibition: − (key: +: at least 80% growth inhibition; −: less than 80% growth inhibition)
Ustilago maydis (USTIMA)
  USTIMA in vitro Growth Inhibition: − (key: +: at least 80% growth inhibition; −: less than 80% growth inhibition)

## O=C(NCC1CCCCC1)c1ncccc1O [Compound 202]
[1]
  RHIZSO in vitro Growth Inhibition: − (key: +: at least 80% growth inhibition; −: less than 80% growth inhibition)
Ustilago maydis (USTIMA)
  USTIMA in vitro Growth Inhibition: − (key: +: at least 80% growth inhibition; −: less than 80% growth inhibition)

## O=C(NC1CCCCCCC1)c1ncccc1O [Compound 203]
[1]
  RHIZSO in vitro Growth Inhibition: + (key: +: at least 80% growth inhibition; −: less than 80% growth inhibition)
Ustilago maydis (USTIMA)
  USTIMA in vitro Growth Inhibition: − (key: +: at least 80% growth inhibition; −: less than 80% growth inhibition)

## CC1(C)CC(NC(=O)c2ncccc2O)CC(C)(C2CC2)C1 (stereo not shown) [Compound 204]
[1]
  RHIZSO in vitro Growth Inhibition: − (key: +: at least 80% growth inhibition; −: less than 80% growth inhibition)
Ustilago maydis (USTIMA)
  USTIMA in vitro Growth Inhibition: − (key: +: at least 80% growth inhibition; −: less than 80% growth inhibition)

## CC1(C)CC(NC(=O)c2ncccc2O)CC(C)(C)C1=O [Compound 205]
[1]
  RHIZSO in vitro Growth Inhibition: − (key: +: at least 80% growth inhibition; −: less than 80% growth inhibition)
Ustilago maydis (USTIMA)
  USTIMA in vitro Growth Inhibition: − (key: +: at least 80% growth inhibition; −: less than 80% growth inhibition)

## O=C(NC1CCC(O)CC1)c1ncccc1O (stereo not shown) [Compound 208]
[1]
  RHIZSO in vitro Growth Inhibition: − (key: +: at least 80% growth inhibition; −: less than 80% growth inhibition)
Ustilago maydis (USTIMA)
  USTIMA in vitro Growth Inhibition: − (key: +: at least 80% growth inhibition; −: less than 80% growth inhibition)

## CC(=O)OC1CCC(NC(=O)c2ncccc2O)CC1 (stereo not shown) [Compound 209]
[1]
  RHIZSO in vitro Growth Inhibition: − (key: +: at least 80% growth inhibition; −: less than 80% growth inhibition)
Ustilago maydis (USTIMA)
  USTIMA in vitro Growth Inhibition: − (key: +: at least 80% growth inhibition; −: less than 80% growth inhibition)

## CC(C)C(=O)OC1CCC(NC(=O)c2ncccc2O)CC1 (stereo not shown) [Compound 210]
[1]
  RHIZSO in vitro Growth Inhibition: − (key: +: at least 80% growth inhibition; −: less than 80% growth inhibition)
Ustilago maydis (USTIMA)
  USTIMA in vitro Growth Inhibition: − (key: +: at least 80% growth inhibition; −: less than 80% growth inhibition)

## O=C(OC1CCC(NC(=O)c2ncccc2O)CC1)c1ccccc1 (stereo not shown) [Compound 211]
[1]
  RHIZSO in vitro Growth Inhibition: − (key: +: at least 80% growth inhibition; −: less than 80% growth inhibition)
Ustilago maydis (USTIMA)
  USTIMA in vitro Growth Inhibition: − (key: +: at least 80% growth inhibition; −: less than 80% growth inhibition)

## O=C(Nc1cccc(Cl)c1)c1ncccc1O [Compound 212]
[1]
  RHIZSO in vitro Growth Inhibition: − (key: +: at least 80% growth inhibition; −: less than 80% growth inhibition)
Ustilago maydis (USTIMA)
  USTIMA in vitro Growth Inhibition: − (key: +: at least 80% growth inhibition; −: less than 80% growth inhibition)

## O=C(Nc1cccc(C(F)(F)F)c1)c1ncccc1O [Compound 214]
[1]
  RHIZSO in vitro Growth Inhibition: − (key: +: at least 80% growth inhibition; −: less than 80% growth inhibition)
Ustilago maydis (USTIMA)
  USTIMA in vitro Growth Inhibition: − (key: +: at least 80% growth inhibition; −: less than 80% growth inhibition)

## Cc1cc(C)cc(NC(=O)c2ncccc2O)c1 [Compound 215]
[1]
  RHIZSO in vitro Growth Inhibition: − (key: +: at least 80% growth inhibition; −: less than 80% growth inhibition)
Ustilago maydis (USTIMA)
  USTIMA in vitro Growth Inhibition: − (key: +: at least 80% growth inhibition; −: less than 80% growth inhibition)

## COc1cc(NC(=O)c2ncccc2O)cc(OC)c1 [Compound 216]
[1]
  RHIZSO in vitro Growth Inhibition: − (key: +: at least 80% growth inhibition; −: less than 80% growth inhibition)
Ustilago maydis (USTIMA)
  USTIMA in vitro Growth Inhibition: − (key: +: at least 80% growth inhibition; −: less than 80% growth inhibition)

## O=C(Nc1ccc(Oc2ccc(C(F)(F)F)cc2)cc1)c1ncccc1O [Compound 217]
[1]
  RHIZSO in vitro Growth Inhibition: − (key: +: at least 80% growth inhibition; −: less than 80% growth inhibition)
Ustilago maydis (USTIMA)
  USTIMA in vitro Growth Inhibition: − (key: +: at least 80% growth inhibition; −: less than 80% growth inhibition)

## O=C(NCc1ccccc1Cl)c1ncccc1O [Compound 218]
[1]
  RHIZSO in vitro Growth Inhibition: + (key: +: at least 80% growth inhibition; −: less than 80% growth inhibition)
Ustilago maydis (USTIMA)
  USTIMA in vitro Growth Inhibition: + (key: +: at least 80% growth inhibition; −: less than 80% growth inhibition)

## O=C(NCc1cccc(Cl)c1)c1ncccc1O [Compound 219]
[1]
  RHIZSO in vitro Growth Inhibition: + (key: +: at least 80% growth inhibition; −: less than 80% growth inhibition)
Ustilago maydis (USTIMA)
  USTIMA in vitro Growth Inhibition: + (key: +: at least 80% growth inhibition; −: less than 80% growth inhibition)

## O=C(NCc1ccc(Cl)cc1)c1ncccc1O [Compound 220]
[1]
  RHIZSO in vitro Growth Inhibition: + (key: +: at least 80% growth inhibition; −: less than 80% growth inhibition)
Ustilago maydis (USTIMA)
  USTIMA in vitro Growth Inhibition: + (key: +: at least 80% growth inhibition; −: less than 80% growth inhibition)

## O=C(NCc1ccc(Cl)c(Cl)c1)c1ncccc1O [Compound 221]
[1]
  RHIZSO in vitro Growth Inhibition: − (key: +: at least 80% growth inhibition; −: less than 80% growth inhibition)
Ustilago maydis (USTIMA)
  USTIMA in vitro Growth Inhibition: − (key: +: at least 80% growth inhibition; −: less than 80% growth inhibition)

## Cc1cccc(CNC(=O)c2ncccc2O)c1 [Compound 222]
[1]
  RHIZSO in vitro Growth Inhibition: − (key: +: at least 80% growth inhibition; −: less than 80% growth inhibition)
Ustilago maydis (USTIMA)
  USTIMA in vitro Growth Inhibition: − (key: +: at least 80% growth inhibition; −: less than 80% growth inhibition)

## Cc1ccc(CNC(=O)c2ncccc2O)cc1 [Compound 223]
[1]
  RHIZSO in vitro Growth Inhibition: − (key: +: at least 80% growth inhibition; −: less than 80% growth inhibition)
Ustilago maydis (USTIMA)
  USTIMA in vitro Growth Inhibition: + (key: +: at least 80% growth inhibition; −: less than 80% growth inhibition)

## COc1ccccc1CNC(=O)c1ncccc1O [Compound 224]
[1]
  RHIZSO in vitro Growth Inhibition: − (key: +: at least 80% growth inhibition; −: less than 80% growth inhibition)
Ustilago maydis (USTIMA)
  USTIMA in vitro Growth Inhibition: − (key: +: at least 80% growth inhibition; −: less than 80% growth inhibition)

## COc1cccc(CNC(=O)c2ncccc2O)c1 [Compound 225]
[1]
  RHIZSO in vitro Growth Inhibition: − (key: +: at least 80% growth inhibition; −: less than 80% growth inhibition)
Ustilago maydis (USTIMA)
  USTIMA in vitro Growth Inhibition: − (key: +: at least 80% growth inhibition; −: less than 80% growth inhibition)

## COc1ccc(CNC(=O)c2ncccc2O)cc1 [Compound 226]
[1]
  RHIZSO in vitro Growth Inhibition: − (key: +: at least 80% growth inhibition; −: less than 80% growth inhibition)
Ustilago maydis (USTIMA)
  USTIMA in vitro Growth Inhibition: − (key: +: at least 80% growth inhibition; −: less than 80% growth inhibition)

## COc1cccc(CNC(=O)c2ncccc2O)c1OC [Compound 227]
[1]
  RHIZSO in vitro Growth Inhibition: − (key: +: at least 80% growth inhibition; −: less than 80% growth inhibition)
Ustilago maydis (USTIMA)
  USTIMA in vitro Growth Inhibition: − (key: +: at least 80% growth inhibition; −: less than 80% growth inhibition)

## O=C(NCc1cccc2ccccc12)c1ncccc1O [Compound 228]
[1]
  RHIZSO in vitro Growth Inhibition: − (key: +: at least 80% growth inhibition; −: less than 80% growth inhibition)
Ustilago maydis (USTIMA)
  USTIMA in vitro Growth Inhibition: − (key: +: at least 80% growth inhibition; −: less than 80% growth inhibition)

## CC(NC(=O)c1ncccc1O)c1ccccc1 (stereo not shown) [Compound 229]
[1]
  RHIZSO in vitro Growth Inhibition: − (key: +: at least 80% growth inhibition; −: less than 80% growth inhibition)
Ustilago maydis (USTIMA)
  USTIMA in vitro Growth Inhibition: − (key: +: at least 80% growth inhibition; −: less than 80% growth inhibition)

## CC(NC(=O)c1ncccc1O)c1ccc(Cl)cc1 (stereo not shown) [Compound 230]
[1]
  RHIZSO in vitro Growth Inhibition: − (key: +: at least 80% growth inhibition; −: less than 80% growth inhibition)
Ustilago maydis (USTIMA)
  USTIMA in vitro Growth Inhibition: − (key: +: at least 80% growth inhibition; −: less than 80% growth inhibition)

## C[C@@H](NC(=O)c1ncccc1O)c1cccc2ccccc12 [Compound 231]
[1]
  RHIZSO in vitro Growth Inhibition: − (key: +: at least 80% growth inhibition; −: less than 80% growth inhibition)
Ustilago maydis (USTIMA)
  USTIMA in vitro Growth Inhibition: − (key: +: at least 80% growth inhibition; −: less than 80% growth inhibition)

## C[C@H](NC(=O)c1ncccc1O)c1cccc2ccccc12 [Compound 232]
[1]
  RHIZSO in vitro Growth Inhibition: − (key: +: at least 80% growth inhibition; −: less than 80% growth inhibition)
Ustilago maydis (USTIMA)
  USTIMA in vitro Growth Inhibition: − (key: +: at least 80% growth inhibition; −: less than 80% growth inhibition)

## O=C(NCCc1ccc(Cl)cc1)c1ncccc1O [Compound 233, N-(2-(4-Chlorophenyl)Ethyl)-3-Hydroxypyridine-2-Carboxamide]
[1]
  RHIZSO in vitro Growth Inhibition: − (key: +: at least 80% growth inhibition; −: less than 80% growth inhibition)
Ustilago maydis (USTIMA)
  USTIMA in vitro Growth Inhibition: + (key: +: at least 80% growth inhibition; −: less than 80% growth inhibition)

## O=C(NCCCCc1ccccc1)c1ncccc1O [Compound 234]
[1]
  RHIZSO in vitro Growth Inhibition: − (key: +: at least 80% growth inhibition; −: less than 80% growth inhibition)
Ustilago maydis (USTIMA)
  USTIMA in vitro Growth Inhibition: − (key: +: at least 80% growth inhibition; −: less than 80% growth inhibition)

## O=C(Nc1nccs1)c1ncccc1O [Compound 235]
[1]
  RHIZSO in vitro Growth Inhibition: + (key: +: at least 80% growth inhibition; −: less than 80% growth inhibition)
Ustilago maydis (USTIMA)
  USTIMA in vitro Growth Inhibition: + (key: +: at least 80% growth inhibition; −: less than 80% growth inhibition)

## Cc1ccnc(C(=O)NC2CC(C)(C)CC(C)(C)C2)c1O [Compound 236]
[1]
  RHIZSO in vitro Growth Inhibition: − (key: +: at least 80% growth inhibition; −: less than 80% growth inhibition)
Ustilago maydis (USTIMA)
  USTIMA in vitro Growth Inhibition: − (key: +: at least 80% growth inhibition; −: less than 80% growth inhibition)

## Cc1ccnc(C(=O)Nc2ccc(Oc3cccc(C(F)(F)F)c3)cc2)c1O [Compound 238]
[1]
  RHIZSO in vitro Growth Inhibition: − (key: +: at least 80% growth inhibition; −: less than 80% growth inhibition)
Ustilago maydis (USTIMA)
  USTIMA in vitro Growth Inhibition: − (key: +: at least 80% growth inhibition; −: less than 80% growth inhibition)

## COc1ccnc(C(=O)NCC#CCCl)c1O [Compound 239]
[1]
  RHIZSO in vitro Growth Inhibition: − (key: +: at least 80% growth inhibition; −: less than 80% growth inhibition)
Ustilago maydis (USTIMA)
  USTIMA in vitro Growth Inhibition: − (key: +: at least 80% growth inhibition; −: less than 80% growth inhibition)

## COc1ccnc(C(=O)NCC2C(C=C(C)C)C2(C)C)c1O (stereo not shown) [Compound 241]
[1]
  RHIZSO in vitro Growth Inhibition: + (key: +: at least 80% growth inhibition; −: less than 80% growth inhibition)
Ustilago maydis (USTIMA)
  USTIMA in vitro Growth Inhibition: − (key: +: at least 80% growth inhibition; −: less than 80% growth inhibition)

## COc1ccnc(C(=O)NC2CCN(C(=O)c3ccccc3)CC2)c1O [Compound 308]
Ustilago maydis (USTIMA)
  USTIMA in vitro Growth Inhibition: − (key: +: at least 80% growth inhibition; −: less than 80% growth inhibition)
